Assay results published in US8236301B2, “Lumican proteoglycan in the diagnosis and treatment of atherosclerosis” (The General Hospital Corporation, priority 2005, dated 2012).

Test system: human umbilical vein endothelial cells (HUVECs)
Conditions: confluent HUVECs, single bolus of physiologic levels of H2O2, 5 hr
Protocol: HUVECs were treated with the indicated concentrations of H2O2 for 5 hours. The cells were harvested and the proteoglycans isolated and analyzed by Western blotting for lumican and biglycan.
Since lumican proteoglycan is deposited at enhanced levels in atherosclerosis-prone arteries, it is possible that lumican proteoglycan is generated by cultured human umbilical vein endothelial cells (HUVECs). The production of lumican proteoglycan by cultured human umbilical vein endothelial cells (HUVECs) was examined in vitro. Confluent HUVECs in complete media with serum and growth supplements were treated with a single bolus addition of varying concentrations of H2O2. After 5 hr the cells were washed and harvested as described previously (Kattapuram et al. (2005) Journal of Biological Chemnistry 280, 15340-15347). The proteoglycans were then extracted, isolated and analyzed by immunoblotting for lumican and biglycan.

## OO [H2O2, Hydrogen Peroxide]
  upregulation of biglycan (immunoblot): no upregulation
Vs resting conditions
  upregulation of Lumican-PG100 (immunoblot): substantial upregulation
